Source: patent publication US12649750B2, “Macrocyclic compounds, compositions, and methods of using thereof” (Sionna Therapeutics Inc., priority 2022, dated 2026)

Key:
NBD1 = target: T1, NBD1 (Homo sapiens, UniProt P13569); assay: Aggregation analysis using differential static light scattering (DSLS), thermal stability of NBD1 (ΔTagg); type: binding; conditions: ΔTagg versus DMSO control, NBD1 0.2 mg/ml
T1 construct: Purified recombinant NBD1 was produced using previously described methods; made in house
T1 sequence (P13569 423-646 limits assumed): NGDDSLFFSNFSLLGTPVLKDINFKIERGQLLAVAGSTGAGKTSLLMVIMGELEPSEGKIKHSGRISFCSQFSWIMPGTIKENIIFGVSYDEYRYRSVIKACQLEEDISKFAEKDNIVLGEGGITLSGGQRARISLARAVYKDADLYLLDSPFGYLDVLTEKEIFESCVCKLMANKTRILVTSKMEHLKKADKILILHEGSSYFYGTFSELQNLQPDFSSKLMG
Outline: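 Purified recombinant NBD1 at 0.2 mg/ml in 50 mM Tris-HCl, 150 mM NaCl, 5 mM MgCl2, 2 mM ATP, 2 mM DTT, pH 7.6, 1% glycerol, with compound, heated 1° C./min to 70° C. under light-scattering monitoring. Tagg taken at curve inflection; ΔTagg is compound Tagg minus mean DMSO-control Tagg, binned A (≤5° C.), B (>5-≤10° C.), C (>10-≤25° C.).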

CFTR = target: T2, CFTR (Homo sapiens, UniProt P13569, DEL508-508); assay: TECC24 AUC fold over DMSO @10 μM, CFTR-mediated transepithelial chloride transport in CF-HBE cells; type: cell-based; conditions: test agent AUC divided by DMSO vehicle AUC, primary CF-HBE cells, ΔF508 homozygous donor, 48 hours incubation
T2 construct: Primary human bronchial epithelial cells from a ΔF508 homozygous CF donor; host or cells: primary human bronchial epithelial cells (CF-HBE), ΔF508 homozygous donor
T2 sequence (P13569 with tags, fused parts or gaps DEL508-508): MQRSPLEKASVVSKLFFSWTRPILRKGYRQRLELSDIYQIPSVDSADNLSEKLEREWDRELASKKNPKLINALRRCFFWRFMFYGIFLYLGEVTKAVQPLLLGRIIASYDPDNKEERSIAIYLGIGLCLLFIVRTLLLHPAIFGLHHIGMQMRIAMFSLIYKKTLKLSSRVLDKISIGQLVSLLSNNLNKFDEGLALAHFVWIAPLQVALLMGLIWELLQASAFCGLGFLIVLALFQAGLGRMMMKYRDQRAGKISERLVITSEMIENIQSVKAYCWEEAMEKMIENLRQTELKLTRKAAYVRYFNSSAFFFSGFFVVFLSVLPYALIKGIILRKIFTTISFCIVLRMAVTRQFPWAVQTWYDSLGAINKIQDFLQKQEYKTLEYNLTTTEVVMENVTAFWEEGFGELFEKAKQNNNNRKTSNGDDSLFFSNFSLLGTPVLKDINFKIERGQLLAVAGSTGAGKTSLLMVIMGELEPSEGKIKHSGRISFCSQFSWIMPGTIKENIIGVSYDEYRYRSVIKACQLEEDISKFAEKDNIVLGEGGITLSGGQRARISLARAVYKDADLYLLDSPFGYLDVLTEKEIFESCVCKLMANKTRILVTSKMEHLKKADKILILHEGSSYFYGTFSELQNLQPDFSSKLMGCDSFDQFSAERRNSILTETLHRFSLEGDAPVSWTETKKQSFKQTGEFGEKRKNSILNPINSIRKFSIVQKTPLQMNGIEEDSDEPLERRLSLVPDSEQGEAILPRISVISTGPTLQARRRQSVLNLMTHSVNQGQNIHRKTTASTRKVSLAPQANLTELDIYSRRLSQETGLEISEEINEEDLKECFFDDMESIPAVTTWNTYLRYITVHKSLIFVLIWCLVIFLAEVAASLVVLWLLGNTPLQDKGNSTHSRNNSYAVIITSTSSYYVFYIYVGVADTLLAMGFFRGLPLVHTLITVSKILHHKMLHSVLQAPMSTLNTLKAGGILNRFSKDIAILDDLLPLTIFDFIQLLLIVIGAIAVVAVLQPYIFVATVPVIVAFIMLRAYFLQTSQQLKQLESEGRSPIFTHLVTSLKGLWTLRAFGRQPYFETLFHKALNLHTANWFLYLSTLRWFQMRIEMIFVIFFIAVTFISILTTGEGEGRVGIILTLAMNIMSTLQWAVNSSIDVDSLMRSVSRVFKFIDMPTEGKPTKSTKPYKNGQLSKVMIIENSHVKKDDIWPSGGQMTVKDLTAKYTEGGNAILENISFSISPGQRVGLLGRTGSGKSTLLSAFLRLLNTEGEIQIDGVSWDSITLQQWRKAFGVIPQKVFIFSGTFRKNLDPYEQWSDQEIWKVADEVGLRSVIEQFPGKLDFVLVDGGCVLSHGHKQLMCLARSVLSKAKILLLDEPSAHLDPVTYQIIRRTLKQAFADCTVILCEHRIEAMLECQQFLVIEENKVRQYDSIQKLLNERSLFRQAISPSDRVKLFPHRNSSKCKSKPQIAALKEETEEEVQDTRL
Outline: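 ΔF508-homozygous primary bronchial epithelial cells incubated 48 h at 36.5° C with compound (10 μM) in IL-13-containing medium, then TECC24 current-clamp recording in pH 7.4 Hepes saline with benzamil 10 μM, forskolin 10 μM, then CFTR inhibitor-172 20 μM. Equivalent Cl− current AUC between forskolin and inhibitor, expressed as fold over DMSO.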

C[C@H](Cc1cccc(C2(C)CCCC(C)(C)CS(=O)(=O)CCc3c(c(F)cc4[nH]ccc34)C(=O)c3ccc(F)c(c3)-c3nc2nn3C)c1)C(=O)O (single isomer, unassigned) [Compound 126A]
DSLS 3D (100 μM ΔT) (NBD1): C (a value greater than 10 °C and less than or equal to 25 °C is marked “C”)
TECC (AUC, 10 μM) (CFTR): B (a value between 12-20 is marked “B”)

C[C@H](Cc1cccc(C2(C)CCCC(C)(C)CS(=O)(=O)CCc3c(c(F)cc4[nH]ccc34)C(=O)c3ccc(F)c(c3)-c3nc2nn3C)c1)C(=O)O (single isomer, unassigned) [Compound 126B]
DSLS 3D (100 μM ΔT) (NBD1): B (a value above 5 °C and less than or equal to 10 °C is marked “B”)
TECC (AUC, 10 μM) (CFTR): B (a value between 12-20 is marked “B”)

COc1ccc2cc1-c1nc(nn1C)C(C)(c1cccc(C[C@@H](C)C(=O)O)c1)CCCC(C)(C)CS(=O)(=O)CCc1c(c(F)cc3[nH]ccc13)C2=O (single isomer, unassigned) [Compound 127A]
DSLS 3D (100 μM ΔT) (NBD1): B (a value above 5 °C and less than or equal to 10 °C is marked “B”)
TECC (AUC, 10 μM) (CFTR): A (a TECC value less than 12 is marked “A”)

COc1ccc2cc1-c1nc(nn1C)C(C)(c1cccc(C[C@@H](C)C(=O)O)c1)CCCC(C)(C)CS(=O)(=O)CCc1c(c(F)cc3[nH]ccc13)C2=O (single isomer, unassigned) [Compound 127B]
DSLS 3D (100 μM ΔT) (NBD1): A (an ΔTagg value less than or equal to 5 °C is marked “A”)
TECC (AUC, 10 μM) (CFTR): A (a TECC value less than 12 is marked “A”)

C[C@@H](Cc1cccc(C2(C)CCCC(C)(C)CS(=O)(=O)CCc3c(c(F)cc4[nH]ccc34)Oc3ccc(F)c(c3)-c3nc2c[nH]3)c1)C(=O)O (single isomer, unassigned) [Compound 129A]
DSLS 3D (100 μM ΔT) (NBD1): A (an ΔTagg value less than or equal to 5 °C is marked “A”)
TECC (AUC, 10 μM) (CFTR): A (a TECC value less than 12 is marked “A”)

C[C@@H](Cc1cccc(C2(C)CCCC(C)(C)CS(=O)(=O)CCc3c(c(F)cc4[nH]ccc34)Oc3ccc(F)c(c3)-c3nc2c[nH]3)c1)C(=O)O (single isomer, unassigned) [Compound 129B]
DSLS 3D (100 μM ΔT) (NBD1): C (a value greater than 10 °C and less than or equal to 25 °C is marked “C”)
TECC (AUC, 10 μM) (CFTR): A (a TECC value less than 12 is marked “A”)

[2H]C([2H])([2H])C1(c2cccc(C[C@H](C)C(=O)O)c2)CCCC2(COC2)CS(=O)(=O)CCc2c(c(F)cc3[nH]ccc23)Oc2ccc(F)c(c2)-c2nc1nn2C (single isomer, unassigned) [Compound 130A]
DSLS 3D (100 μM ΔT) (NBD1): C (a value greater than 10 °C and less than or equal to 25 °C is marked “C”)
TECC (AUC, 10 μM) (CFTR): C (a value between 20 and 80 is marked “C”)

[2H]C([2H])([2H])C1(c2cccc(C[C@H](C)C(=O)O)c2)CCCC2(COC2)CS(=O)(=O)CCc2c(c(F)cc3[nH]ccc23)Oc2ccc(F)c(c2)-c2nc1nn2C (single isomer, unassigned) [Compound 130B]
DSLS 3D (100 μM ΔT) (NBD1): C (a value greater than 10 °C and less than or equal to 25 °C is marked “C”)
TECC (AUC, 10 μM) (CFTR): C (a value between 20 and 80 is marked “C”)

CC(Cc1cccc(C2(C)CCCC(C)(C)CS(=O)(=O)CCc3c(c(F)cc4[nH]ccc34)Cn3cc(ccc3=O)-c3nc2nn3C)c1)C(=O)O (single isomer, unassigned) [Compound 132A, 3-[3-(22-fluoro-3,6,10,10-tetramethyl-12,12,26-trioxo-12λ6-thia-3,4,19,25,30-pentazapentacyclo-[23.3.1.12,5.015,23.016,20]triaconta-1(29),2(30),4,15,17,20,22,27-octaen-6-yl)phenyl]-2-methyl-propanoic Acid]
DSLS 3D (100 μM ΔT) (NBD1): A (an ΔTagg value less than or equal to 5 °C is marked “A”)
TECC (AUC, 10 μM) (CFTR): A (a TECC value less than 12 is marked “A”)

CC(Cc1cccc(C2(C)CCCC(C)(C)CS(=O)(=O)CCc3c(c(F)cc4[nH]ccc34)Cn3cc(ccc3=O)-c3nc2nn3C)c1)C(=O)O (single isomer, unassigned) [Compound 132B, 3-[3-(22-fluoro-3,6,10,10-tetramethyl-12,12,26-trioxo-12λ6-thia-3,4,19,25,30-pentazapentacyclo-[23.3.1.12,5.015,23.016,20]triaconta-1(29),2(30),4,15,17,20,22,27-octaen-6-yl)phenyl]-2-methyl-propanoic Acid]
DSLS 3D (100 μM ΔT) (NBD1): C (a value greater than 10 °C and less than or equal to 25 °C is marked “C”)
TECC (AUC, 10 μM) (CFTR): A (a TECC value less than 12 is marked “A”)

CC(Cc1cccc(C2(CNCC(F)(F)F)CCCC(C)(C)CS(=O)(=O)CCc3c(c(F)cc4[nH]ccc34)Oc3ccc(F)c(c3)-c3nc2nn3C)c1)C(=O)O (single isomer, unassigned) [Compound 133A, 3-[3-[22,28-difluoro-3,10,10-trimethyl-12,12-dioxo-6-[(2,2,2-trifluoroethylamino)methyl]-24-oxa-12λ6-thia-3,4,19,30-tetrazapentacyclo[23.3.1.12,5.015,23.016,20]triaconta-1(29),2(30),4,15,17,20,22,25,27-nonaen-6-yl]phenyl]-2-methyl-propanoic Acid]
DSLS 3D (100 μM ΔT) (NBD1): C (a value greater than 10 °C and less than or equal to 25 °C is marked “C”)
TECC (AUC, 10 μM) (CFTR): C (a value between 20 and 80 is marked “C”)

CC(Cc1cccc(C2(CNCC(F)(F)F)CCCC(C)(C)CS(=O)(=O)CCc3c(c(F)cc4[nH]ccc34)Oc3ccc(F)c(c3)-c3nc2nn3C)c1)C(=O)O (single isomer, unassigned) [Compound 133B, 3-[3-[22,28-difluoro-3,10,10-trimethyl-12,12-dioxo-6-[(2,2,2-trifluoroethylamino)methyl]-24-oxa-12λ6-thia-3,4,19,30-tetrazapentacyclo[23.3.1.12,5.015,23.016,20]triaconta-1(29),2(30),4,15,17,20,22,25,27-nonaen-6-yl]phenyl]-2-methyl-propanoic Acid]
DSLS 3D (100 μM ΔT) (NBD1): B (a value above 5 °C and less than or equal to 10 °C is marked “B”)
TECC (AUC, 10 μM) (CFTR): A (a TECC value less than 12 is marked “A”)

Cn1nc2nc1-c1cc(ccc1F)Oc1c(F)cc3[nH]ccc3c1CCS(=O)(=O)CC(C)(C)CCCC2(C)c1cccc(CC(O)C(=O)O)c1 (single isomer, unassigned) [Compound 134A, 3-[3-(22,28-Difluoro-3,6,10,10-tetramethyl-12,12-dioxo-24-oxa-12λ6-thia-3,4,19,30-tetrazapentacyclo-[23.3.1.12,5.015,23.016,20]-triaconta-1(29),2(30),4,15,17,20,22,25,27-nonaen-6-yl)phenyl]-2-hydroxy-propanoic Acid]
DSLS 3D (100 μM ΔT) (NBD1): C (a value greater than 10 °C and less than or equal to 25 °C is marked “C”)
TECC (AUC, 10 μM) (CFTR): C (a value between 20 and 80 is marked “C”)

Cn1nc2nc1-c1cc(ccc1F)Oc1c(F)cc3[nH]ccc3c1CCS(=O)(=O)CC(C)(C)CCCC2(C)c1cccc(CC(O)C(=O)O)c1 (single isomer, unassigned) [Compound 134B, 3-[3-(22,28-Difluoro-3,6,10,10-tetramethyl-12,12-dioxo-24-oxa-12λ6-thia-3,4,19,30-tetrazapentacyclo-[23.3.1.12,5.015,23.016,20]-triaconta-1(29),2(30),4,15,17,20,22,25,27-nonaen-6-yl)phenyl]-2-hydroxy-propanoic Acid]
DSLS 3D (100 μM ΔT) (NBD1): A (an ΔTagg value less than or equal to 5 °C is marked “A”)
TECC (AUC, 10 μM) (CFTR): A (a TECC value less than 12 is marked “A”)

COC(Cc1cccc(C2(C)CCCC(C)(C)CS(=O)(=O)CCc3c(c(F)cc4[nH]ccc34)Oc3ccc(F)c(c3)-c3nc2nn3C)c1)C(=O)O (single isomer, unassigned) [Compound 135A, 3-[3-(22,28-Difluoro-3,6,10,10-tetramethyl-12,12-dioxo-24-oxa-12λ6-thia-3,4,19,30-tetrazapentacyclo-[23.3.1.12,5.015,23.016,20]triaconta-1(29),2(30),4,15,17,20,22,25,27-nonaen-6-yl)phenyl]-2-methoxy-propanoic Acid]
DSLS 3D (100 μM ΔT) (NBD1): A (an ΔTagg value less than or equal to 5 °C is marked “A”)
TECC (AUC, 10 μM) (CFTR): A (a TECC value less than 12 is marked “A”)

COC(Cc1cccc(C2(C)CCCC(C)(C)CS(=O)(=O)CCc3c(c(F)cc4[nH]ccc34)Oc3ccc(F)c(c3)-c3nc2nn3C)c1)C(=O)O (single isomer, unassigned) [Compound 135B, 3-[3-(22,28-Difluoro-3,6,10,10-tetramethyl-12,12-dioxo-24-oxa-12λ6-thia-3,4,19,30-tetrazapentacyclo-[23.3.1.12,5.015,23.016,20]triaconta-1(29),2(30),4,15,17,20,22,25,27-nonaen-6-yl)phenyl]-2-methoxy-propanoic Acid]
DSLS 3D (100 μM ΔT) (NBD1): C (a value greater than 10 °C and less than or equal to 25 °C is marked “C”)
TECC (AUC, 10 μM) (CFTR): C (a value between 20 and 80 is marked “C”)
